Laboratory results published in patent US10501460B2, “Heterocyclic compounds and uses thereof” (Plexxikon Inc., priority 2013, dated 2019).

Assays:
BRD4-BD1 (44-164) = target: T1, BRD4-BD1 (44-164) (Homo sapiens, UniProt O60885); test: Alphascreen binding assay BRD4-BD1 (BRD4 biochemical inhibitory activity); conditions: read-out: Biochemical activity (IC50 μM) BRD4(1) H4
T1 construct: BRD4-BD1 (44-164); made in house; host or cells: E. coli BL21-CodonPlus (DE3)
Method: Binding of compounds of formula (I) with bromodomain 2, 3 4 was assessed using Alphascreen binding assay. The inhibition of the interaction between bromodomain and its acetylated target protein (Filippakopoulos P et al. 2012) was measured quantitatively using recombinant BRD proteins, an acetylated Histone 4 peptide and AlphaScreen™ technology. In absence of inhibition the BRD protein bound to AlphaScreen™ nickel chelate acceptor beads can interact with the acetylated Histone 4 peptide which is immobilized by the AlphaScreen™ Streptavidin coated beads. This interaction brings donor and acceptor beads in proximity. The close proximity allows the singlet oxygen produced by laser excitation of the donor beads to reach the acceptor beads and generate a luminescence signal. BRD inhibitors result in a decrease in the proximity signal through an inhibition of the BRD—acetylated peptide interaction.
Recombinant human bromodomains containing the N-terminal bromodomain (BRD2-BD1 (71-194), BRD3-BD1 (24-144) and BRD4-BD1 (44-164)) or dual bromodomains (BRD4-BD12 (1-477), BRD4-BD12 (1-472)) were prepared and purified as described in protein expression and purification session. The peptide is human Histone H41-21K5AcK8AcK12AcK16Ac-Biotin (Anaspec Calif., USA).
Protocol for BRD2, BRD3 and BRD4 assay: All components are prepared in buffer composed of 50 mM HEPES pH 7.5, 100 mM NaCl, 0.01% bovine serum albumin (“BSA”), 0.01% Triton X-100, 2 mM dithiothreitol (“DTT”). 7 μL of Bromodomain protein and 7 μL of peptide are added to wells containing 1 μL of various concentrations of test compounds of formula (I) or DMSO vehicle in an Alphaplate (PerkinElmer Ga., USA) and incubated for 1 hour at room temperature. 4 μL donor and acceptor bead mixture is then added with final concentrations of 7.5 μg/ml. 30 minutes after bead addition, Alpha signal is read on the Envision spectrometer ([…]Ex 680 nm, […]Em 520-620 nm). Final concentrations of bromodomain proteins and peptide are as shown below.
All data was normalized to the mean of 16 high and 16 low control wells on each plate. A four parameter curve fit of the following formula was then applied: Y=a+(b−a)/(1+(x/c)^d) Where ‘a’ is the minimum, ‘b’ is the maximum, ‘c’ is the pIC50 and ‘d’ is the Hill slope. Protein Expression and Purification
Recombinant human bromodomains containing the N-terminal bromodomain (BRD2-BD1 (71-194), BRD3-BD1 (24-144) and BRD4-BD1 (44-164)) or dual bromodomains (BRD4-BD12 (1-477), BRD4-BD12 (1-472)) were expressed in E. coli cells (in a modified pET vector) with an N-terminal six-His tag and purified using a combination of both IMAC (Ni-affinity) and size exclusion chromatography steps.
Recombinant BRD proteins were expressed using the E. coli strain BL21-CodonPlus (DE3) (Agilent Technologies Calif., USA). Cells were grown in Terrific Broth (TB) media to an OD600 of 1.2 at 37° C. at which temperature was reduced to 25° C., protein was induced with 1.0 mM ispropyl-β-D-thiogalactopyranoside (“IPTG”) for 12-18 hours and harvested by centrifugation at 8000×g for 20 minutes. Cells were re-suspended in 0.1M K2PO4 pH 8.0, 250 mM NaCl, 10% Glycerol, 0.75% NP-40, 25 mM Imidazole, 5 mM beta-mercaptoethanol (“BME”) with 0.2 mg/ml Lysosyme, 2.0 mM phenylmethanesulfonyl fluoride (“PMSF”), 25 μg/ml DNAse I, incubated on ice for 30 minutes and lyzed with a cell disruptor (MicroFluidics Mass., USA). The lysate was clarified by centrifugation at 20,000×g for 2 hours. The protein was captured with Ni-NTA resin (Life Technologies, USA). Contaminating proteins were washed off with 25 mM Tris-HCl pH 8.3, 250 mM NaCl, 12% Glycerol and 50 mM Imidazole. Following 3× wash steps, protein was eluted step wise using a 50 mM HEPES pH 7.5, 500 mM NaCl and 400 mM Imidazole. The protein was further purified using Gel Filtration column 26/600 Superdex 200 (GE Biosciences NJ, USA) in 50 mM HEPES pH 7.5, 250 mM NaCl. The protein was aliquoted and flash-frozen in liquid Nitrogen. […]

bromodomain = test: Bromodomain cell assays of Example 40 (at least one of them); type: cell-based; conditions: in at least one of the bromodomain cell assays described in Example 40
Summary of the method: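 Growth inhibition: 3000 MV-4-11, MOLM-13, MM.1S or neuroblastoma cells/well got an 8-point 1:3 series from 10 μM top (0.2% DMSO) for 72 h, then CellTiter-Glo luminescence. Myc reporter: MV-4-11 with E-box firefly luciferase, 24 h exposure, One-Glo luminescence plus CellTiter-Fluo cell count. pIC50 from four-parameter fit.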

MV-4-11 = test: Oncology cell growth assay MV-4-11 (CellTiter Glo, 72 hours); type: cell-based; conditions: Homo sapiens, MV4-11, 72 h; MV-4-11 cell growth inhibitory activity, 3d
Summary of the method: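 MV-4-11 cells (MLL-AF4 AML) exposed 72 h to 8-point 1:3 titration, top final 10 μM, 0.2% DMSO. CellTiter Glo luminescence as cell-number readout, normalized to DMSO controls; pIC50 from four-parameter fit.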

Structure (SMILES) | IC50 (BRD4-BD1 (44-164)) [µM] | IC50 (bromodomain) [µM] | IC50 (MV-4-11) [µM]
Cc1noc(C)c1-c1cnc2[nH]c(-c3ccccc3)cc2c1 [P-0001, 3,5-dimethyl-4-(2-phenyl-1H-pyrrolo[2,3-b]pyridin-5-yl)isoxazole] | 1 to 10 | < 10 | –
Cc1noc(C)c1-c1ccc2[nH]ccc2c1 [P-0002, 4-(1H-indol-5-yl)-3,5-dimethyl-isoxazole] | 1 to 10 | < 10 | –
Cc1noc(C)c1-c1cnc2[nH]cc(C(=O)c3cccnc3)c2c1 [P-0004, [5-(3,5-dimethylisoxazol-4-yl)-1H-pyrrolo[2,3-b]pyridin-3-yl]-(3-pyridyl)methanone] | 1 to 10 | < 10 | –
Cc1noc(C)c1-c1cnc2[nH]c(C)c(C(=O)c3cccnc3)c2c1 [P-0006, [5-(3,5-dimethylisoxazol-4-yl)-2-methyl-1H-pyrrolo [2,3-b]pyridin-3-yl]-(3-pyridyl)methanone] | 1 to 10 | < 10 | –
Cc1noc(C)c1-c1cnc2[nH]c(-c3ccc(F)cc3)c(C(=O)c3cccnc3)c2c1 [P-0008, [5-(3,5-dimethylisoxazol-4-yl)-2-(4-fluorophenyl)-1H-pyrrolo[2,3-b]pyridin-3-yl]-(3-pyridyl)methanone] | 1 to 10 | < 10 | –
Cc1noc(C)c1-c1ccc2[nH]cc(CCN3CCCC3)c2c1 [P-0010, 3,5-dimethyl-4-[3-(2-pyrrolidin-1-ylethyl)-1H-indol-5-yl]isoxazole] | 1 to 10 | < 10 | –
Cc1noc(C)c1-c1cnc2[nH]cc(Cc3ccc(C(F)(F)F)cc3)c2c1 [P-0015, 3,5-dimethyl-4-[3-[[4-(trifluoromethyl)phenyl]methyl]-1H-pyrrolo[2,3-b]pyridin-5-yl]isoxazole] | 1 to 10 | < 10 | –
Cc1noc(C)c1-c1cnc2c(-c3cnn(C)c3)cn(C(C(=O)O)c3ccccc3)c2c1 (centres unmarked) [P-0206, 2-[6-(3,5-dimethylisoxazol-4-yl)-3-(1-methylpyrazol-4-yl)pyrrolo[3,2-b]pyridin-1-yl]-2-phenyl-acetic acid] | – | < 10 | 1 to 10
Cc1noc(C)c1-c1cnc2c(-c3cnn(C)c3)cn(C(C(=O)NC3CC3)c3ccccc3)c2c1 (centres unmarked) [P-0207, N-cyclopropyl-2-[6-(3,5-dimethylisoxazol-4-yl)-3-(1-methylpyrazol-4-yl)pyrrolo[3,2-b]pyridin-1-yl]-2-phenyl-acetamide] | – | < 10 | ≤ 1
Cc1noc(C)c1-c1cnc2c(-c3cnn(C)c3)cn(CC3CCC(F)(F)CC3)c2c1 [P-0209, 4-[1-[(4,4-difluorocyclohexyl)methyl]-3-(1-methylpyrazol-4-yl)pyrrolo[3,2-b]pyridin-6-yl]-3,5-dimethyl-isoxazole] | – | < 10 | ≤ 1
Cc1noc(C)c1-c1cnc2c(-c3cnn(C(F)F)c3)cn(CC3CCC(F)(F)CC3)c2c1 [P-0210, 4-[1-[(4,4-difluorocyclohexyl)methyl]-3-[1-(difluoromethyl)pyrazol-4-yl]pyrrolo[3,2-b]pyridin-6-yl]-3,5-dimethyl-isoxazole] | – | < 10 | ≤ 1
[2H]C([2H])(C1CCC(F)(F)CC1)n1cc(-c2cnn(C)c2)c2ncc(-c3c(C)noc3C)cc21 [P-0211, 4-[1-[dideuterio-(4,4-difluorocyclohexyl)methyl]-3-(1-methylpyrazol-4-yl)pyrrolo[3,2-b]pyridin-6-yl]-3,5-dimethyl-isoxazole] | – | < 10 | ≤ 1
Cc1noc(C)c1-c1cnc2c(-c3cnn(C)c3)cn(CC3(F)CCCCC3)c2c1 [P-0212, 4-[1-[(1-fluorocyclohexyl)methyl]-3-(1-methylpyrazol-4-yl)pyrrolo[3,2-b]pyridin-6-yl]-3,5-dimethyl-isoxazole] | – | < 10 | ≤ 1
Cc1noc(C)c1-c1cnc2c(-c3cnn(C)c3)cn(CC3CC(F)(F)C3)c2c1 [P-0213, 4-[1-[(3,3-difluorocyclobutyl)methyl]-3-(1-methylpyrazol-4-yl)pyrrolo[3,2-b]pyridin-6-yl]-3,5-dimethyl-isoxazole] | – | < 10 | ≤ 1
[2H]C([2H])(C1CC(F)(F)C1)n1cc(-c2cnn(C)c2)c2ncc(-c3c(C)noc3C)cc21 [P-0214, 4-[1-[dideuterio-(3,3-difluorocyclobutyl)methyl]-3-(1-methylpyrazol-4-yl)pyrrolo[3,2-b]pyridin-6-yl]-3,5-dimethyl-isoxazole] | – | < 10 | ≤ 1
Cc1noc(C)c1-c1cnc2c(-c3cc(C(F)(F)F)n[nH]3)cn(C(C)c3ccccc3)c2c1 (centres unmarked) [P-0215, 3,5-dimethyl-4-[1-(1-phenylethyl)-3-[3-(trifluoromethyl)-1H-pyrazol-5-yl]pyrrolo[3,2-b]pyridin-6-yl]isoxazole] | – | < 10 | ≤ 1
Cc1noc(C)c1-c1cnc2c(-c3cnn(C4CC4)c3)cn(C(C)c3ccccc3)c2c1 (centres unmarked) [P-0216, 4-[3-(1-cyclopropylpyrazol-4-yl)-1-(1-phenylethyl)pyrrolo[3,2-b]pyridin-6-yl]-3,5-dimethyl-isoxazole] | – | < 10 | ≤ 1
[2H]C([2H])(O)C(c1ccccc1)n1cc(-c2cnn(C)c2)c2ncc(-c3c(C)noc3C)cc21 (centres unmarked) [P-0218, 1,1-dideuterio-2-[6-(3,5-dimethylisoxazol-4-yl)-3-(1-methylpyrazol-4-yl)pyrrolo[3,2-b]pyridin-1-yl]-2-phenyl-ethanol] | – | < 10 | ≤ 1
[2H]C([2H])(C1CCC(F)(F)CC1)n1cc(-c2cnn(C(F)F)c2)c2ncc(-c3c(C)noc3C)cc21 [P-0219, 4-[1-[dideuterio-(4,4-difluorocyclohexyl)methyl]-3-[1-(difluoromethyl)pyrazol-4-yl]pyrrolo[3,2-b]pyridin-6-yl]-3,5-dimethyl-isoxazole] | – | < 10 | ≤ 1
Cc1noc(C)c1-c1cnc2c(-c3cnn(C)c3)cn([C@@H](C)c3ccccc3)c2c1 [P-0222, 3,5-dimethyl-4-[3-(1-methylpyrazol-4-yl)-1-[(1S)-1-phenylethyl]pyrrolo[3,2-b]pyridin-6-yl]isoxazole] | – | < 10 | ≤ 1
Cc1noc(C)c1-c1cnc2c(-c3cnn(C)c3)cn([C@H](C)c3ccccc3)c2c1 [P-0223, 3,5-dimethyl-4-[3-(1-methylpyrazol-4-yl)-1-[(1R)-1-phenylethyl]pyrrolo[3,2-b]pyridin-6-yl]isoxazole] | – | < 10 | ≤ 1
Cc1noc(C)c1-c1cnc2c(I)cn(C(C)c3ccccc3)c2c1 (centres unmarked) [P-0224, 4-[3-iodo-1-(1-phenylethyl)pyrrolo[3,2-b]pyridin-6-yl]-3,5-dimethyl-isoxazole] | – | < 10 | ≤ 1
